Data: PubChem BioAssay (NCI)
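Five compound concentrations were applied to cells in 96-well plates for 48 hours; endpoints were derived by simple linear interpolation of the resulting dose-response curve. The concentration for 50% growth inhibition is given as GI50. TGI marks complete inhibition of growth.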

How the values were obtained:
Assay in all cases: NCI tumour cell line growth inhibition, 48 h
[1] = test system: CCRF-CEM leukemia
[2] = test system: MOLT-4 leukemia
[3] = test system: U251 CNS
[4] = test system: 786-0 renal
[5] = test system: HOP-62 NSCLC
[6] = test system: HL-60(TB) leukemia
[7] = test system: A498 renal
[8] = test system: DU-145 prostate
[9] = test system: T-47D breast
[10] = test system: SR leukemia
[11] = test system: SK-MEL-28 melanoma
[12] = test system: OVCAR-3 ovarian
[13] = test system: M14 melanoma
[14] = test system: ACHN renal
[15] = test system: NCI-H226 lung
[16] = test system: MCF7 breast
[17] = test system: BT-549 breast
[18] = test system: HCC-2998 colon
[19] = test system: SK-MEL-2 melanoma
[20] = test system: COLO 205 colon
[21] = test system: UACC-257 melanoma
[22] = test system: RPMI-8226 leukemia
[23] = test system: SW-620 colon
[24] = test system: HT29 colon
[25] = test system: OVCAR-4 ovarian
[26] = test system: NCI-H460 lung
[27] = test system: NCI-H522 lung
[28] = test system: SK-MEL-5 melanoma
[29] = test system: SF-295 CNS
[30] = test system: UACC-62 melanoma
[31] = test system: K-562 leukemia
[32] = test system: SN12C renal
[33] = test system: MALME-3M melanoma
[34] = test system: LOX IMVI melanoma
[35] = test system: HCT-116 colon
[36] = test system: HCT-15 colon
[37] = test system: RXF 393 renal
[38] = test system: TK-10 renal
[39] = test system: IGROV1 ovarian
[40] = test system: OVCAR-8 ovarian
[41] = test system: SNB-75 CNS
[42] = test system: MDA-MB-435
[43] = test system: HS 578T breast
[44] = test system: PC-3 prostate
[45] = test system: CAKI-1 renal
[46] = test system: UO-31 renal
[47] = test system: SF-539 CNS
[48] = test system: A549 NSCLC
[49] = test system: MDA-MB-231 breast
[50] = test system: OVCAR-5 ovarian
[51] = test system: SK-OV-3 ovarian
[52] = test system: SNB-19 CNS
[53] = test system: KM12 colon
[54] = test system: NCI/ADR-RES ovarian
[55] = test system: NCI-H23 lung
[56] = test system: SF-268 CNS

SMILES: CCN(c1ccc(CO)c(Cl)c1)C(C)c1ccc(F)cc1 (configuration not stated)
- GI50 [1]: 18 µM
- TGI [1]: 41.2 µM
- GI50 [2]: 19.3 µM
- TGI [2]: 40 µM
- GI50 [3]: 9 µM
- TGI [3]: 22 µM
- GI50 [4]: 16.4 µM
- TGI [4]: 30.4 µM
- GI50 [5]: 16.2 µM
- TGI [5]: 30.2 µM
- GI50 [6]: 17.9 µM
- TGI [6]: 38.1 µM
- GI50 [7]: 0.117 µM
- TGI [7]: 0.843 µM
- GI50 [8]: 16.9 µM
- TGI [8]: 31.2 µM
- GI50 [9]: 4.22 µM
- TGI [9]: 18.2 µM
- GI50 [10]: 19.8 µM
- TGI [10]: 43.1 µM
- GI50 [11]: 16.1 µM
- TGI [11]: 30.6 µM
- GI50 [12]: 13.7 µM
- TGI [12]: 27.3 µM
- GI50 [13]: 17.6 µM
- TGI [13]: 33.8 µM
- GI50 [14]: 14.2 µM
- TGI [14]: 27.7 µM
- GI50 [15]: 0.49 µM
- TGI [15]: 2.31 µM
- GI50 [16]: 12.5 µM
- TGI [16]: 27.1 µM
- GI50 [17]: 15.5 µM
- TGI [17]: 29.6 µM
- GI50 [18]: 16.6 µM
- TGI [18]: 32.8 µM
- GI50 [19]: 13.2 µM
- TGI [19]: 28 µM
- GI50 [20]: 18.9 µM
- TGI [20]: 35.5 µM
- GI50 [21]: 2.8 µM
- TGI [21]: 12.8 µM
- GI50 [22]: 11.8 µM
- TGI [22]: 39.2 µM
- GI50 [23]: 14.1 µM
- TGI [23]: 30.2 µM
- GI50 [24]: 15.5 µM
- TGI [24]: 30 µM
- GI50 [25]: 7.97 µM
- TGI [25]: 20.7 µM
- GI50 [26]: 7.88 µM
- TGI [26]: 23.7 µM
- GI50 [27]: 12.7 µM
- TGI [27]: 26.7 µM
- GI50 [28]: 14.5 µM
- TGI [28]: 28 µM
- GI50 [29]: 11.5 µM
- TGI [29]: 24.3 µM
- GI50 [30]: 3.79 µM
- TGI [30]: 16.9 µM
- GI50 [31]: 9.86 µM
- TGI [31]: 24.7 µM
- GI50 [32]: 14.2 µM
- TGI [32]: 28.5 µM
- GI50 [33]: 16.7 µM
- TGI [33]: 31.8 µM
- GI50 [34]: 17.1 µM
- TGI [34]: 32.9 µM
- GI50 [35]: 4.22 µM
- TGI [35]: 17.4 µM
- GI50 [36]: 13.7 µM
- TGI [36]: 28.9 µM
- GI50 [37]: 11 µM
- TGI [37]: 26 µM
- GI50 [38]: 1.12 µM
- TGI [38]: 6.11 µM
- GI50 [39]: 0.891 µM
- TGI [39]: 4 µM
- GI50 [40]: 14.1 µM
- TGI [40]: 30.2 µM
- GI50 [41]: 13 µM
- TGI [41]: 26.8 µM
- GI50 [42]: 17.3 µM
- TGI [42]: 32.5 µM
- GI50 [43]: 16.9 µM
- TGI [43]: 40.2 µM
- GI50 [44]: 13.1 µM
- TGI [44]: 26.7 µM
- GI50 [45]: 8.46 µM
- TGI [45]: 21.7 µM
- GI50 [46]: 15.3 µM
- TGI [46]: 29.1 µM
- GI50 [47]: 16.5 µM
- TGI [47]: 30.8 µM
- GI50 [48]: 13.1 µM
- TGI [48]: 27.9 µM
- GI50 [49]: 15.3 µM
- TGI [49]: 30.1 µM
- GI50 [50]: 2.97 µM
- TGI [50]: 11.9 µM
- GI50 [51]: 15.7 µM
- TGI [51]: 29.2 µM
- GI50 [52]: 16 µM
- TGI [52]: 30.5 µM
- GI50 [53]: 17 µM
- TGI [53]: 32.5 µM
- GI50 [54]: 14.5 µM
- TGI [54]: 31.2 µM
- GI50 [55]: 14 µM
- TGI [55]: 30.5 µM
- GI50 [56]: 17 µM
- TGI [56]: 31.9 µM
